Data set [1] deals with human skin explants. Briefly: Intracellular ROS scavenging activity assay, solar simulated UVA/UVB exposure. The class given is cell-based. The procedure:
Intracellular Reactive Oxygen Species (ROS) Scavenging Activity Assays were conducted on human skin explants from donors of skin Phototype II. The skin explants were treated with, a non-fluorescent probe, 2′, 7′-Dichlorofluorescein diacetate (DCFHDA). After treatment, the skin explants were treated with the moisturizer compositions at a dose of 2 mg/cm^2 and exposed to solar simulated UVA/UVB at doses of 70 mJ/cm^2 in triplicate. DCFH-DA is taken up by cells by passive diffusion and DCFH-DA is deacetylated by cellular esterases to non-fluorescent DCFH, which is trapped within cells. The fluorescent 2′, 7′-dichlorofluorescein (DCF) is generated upon enzymatic reduction and subsequent oxidation by ROS. Fluorescence was measured and correlates to the test item's ability to scavenge ROS. The results are presented as percentage reduction of ROS relative to the level generated following UVA/UVB exposure of unprotected skin. The results of these studies are shown in the Table below and presented as percentage reduction in intracellular ROS relative to unprotected skin. […] These associated skin protective effects include but are not limited to suppressing lipid peroxidation in the skin, preventing or reducing the appearance of lines and wrinkles in skin, preventing loss of elasticity of skin, preventing thinning of skin, and preventing pigment darkening of skin.

Data set [2] has as its system human skin explants. The data set is described as follows: Intracellular ROS scavenging activity assay, HEV exposure. Format: cell-based. Particulars: HEV exposure 412 nm and 450 nm.
Procedure: Intracellular Reactive Oxygen Species (ROS) Scavenging Activity Assays were conducted on human skin explants from donors of skin Phototype II. The skin explants were treated with, a non-fluorescent probe, 2′, 7′-Dichlorofluorescein diacetate (DCFHDA). […] DCFH-DA is taken up by cells by passive diffusion and DCFH-DA is deacetylated by cellular esterases to non-fluorescent DCFH, which is trapped within cells. The fluorescent 2′, 7′-dichlorofluorescein (DCF) is generated upon enzymatic reduction and subsequent oxidation by ROS. Fluorescence was measured and correlates to the test item's ability to scavenge ROS. The results are presented as percentage reduction of ROS relative to the level generated following UVA/UVB exposure of unprotected skin.
For data set [3] the following is noted: cited from earlier work.

Take `Cc1c(C)c2c(c(C)c1O)CCC(C)(CCCC(C)CCCC(C)CCCC(C)C)O2` (racemic) [DL-alpha-tocopherol]: the “reduction in ROS, result in words” value is listed as “statistically significant reduction in ROS” in the data set on human skin explants [1] and “no statistically significant reduction in ROS” with human skin explants [2].

Regarding `C[C@@H]1O[C@@H](OC[C@H]2O[C@@H](Oc3c(-c4ccc(O)c(O)c4)oc4cc(O)cc(O)c4c3=O)[C@H](O)[C@@H](O)[C@@H]2O)[C@H](O)[C@H](O)[C@H]1O` [Rutin, quercetin-3-O-rutinoside], in data set [3], the “solubility in bulk oils, such as soybean oil” value is on record as 0.1 % by weigh.

These data come from patent US12485075B2, “Particulates of polyphenolics and dispersions thereof” (priority 2020, dated 2025).
